Reference: ChEMBL document CHEMBL5335832, “Cavomycins A-C, Linear Oligomer Depsipeptides from an Annelid-Associated Streptomyces cavourensis” (J Nat Prod, 2024)
Activity calls are given as the source filed them. No cut-off for these calls is given here.

Columns and labels:
PANC-1 [1] = assay: Antiproliferative activity against human PANC-1 cells assessed as inhibition of cell growth incubated for 72 hrs by MTT assay; assay type: functional, cell-based; conditions: PANC-1, 72 h
PANC-1 [2] = assay: Antiproliferative activity against human PANC-1 cells assessed as inhibition of cell growth at 20 to 100 uM incubated for 72 hrs by MTT assay; assay type: functional, cell-based; conditions: dose 20-100 µM

IC50 (PANC-1 [1]) [nM] | SMILES | Activity (PANC-1 [2])
1200 | CC(C)[C@H](NC(=O)[C@H](C)O)C(=O)O[C@@H](C(=O)N[C@@H](C(=O)O[C@@H](C)C(=O)N[C@H](C(=O)O[C@@H](C(=O)N[C@@H](C(=O)O[C@@H](C)C(=O)N[C@H](C(=O)O[C@@H](C(=O)N[C@@H](C(=O)O)C(C)C)C(C)C)C(C)C)C(C)C)C(C)C)C(C)C)C(C)C)C(C)C | 
 | CC(C)[C@H](NC(=O)[C@H](C)OC(=O)[C@H](NC(=O)[C@H](OC(=O)[C@@H](NC(=O)[C@H](C)OC(=O)[C@H](NC(=O)[C@H](OC(=O)[C@@H](NC(=O)[C@H](C)OC(=O)[C@@H](NC(=O)[C@H](C)O)C(C)C)C(C)C)C(C)C)C(C)C)C(C)C)C(C)C)C(C)C)C(=O)O | inactive
 | CC(C)[C@H](NC(=O)[C@H](C)OC(=O)[C@H](NC(=O)[C@H](OC(=O)[C@@H](NC(=O)[C@H](C)OC(=O)[C@H](NC(=O)[C@H](OC(=O)[C@@H](NC(=O)[C@H](C)O)C(C)C)C(C)C)C(C)C)C(C)C)C(C)C)C(C)C)C(=O)O | inactive
1700 | COC(=O)[C@H](NC(=O)[C@H](OC(=O)[C@@H](NC(=O)[C@H](C)OC(=O)[C@H](NC(=O)[C@H](OC(=O)[C@@H](NC(=O)[C@H](C)OC(=O)[C@H](NC(=O)[C@H](OC(=O)[C@@H](NC(=O)[C@H](C)O)C(C)C)C(C)C)C(C)C)C(C)C)C(C)C)C(C)C)C(C)C)C(C)C)C(C)C | 
